Measurements: ChEMBL document CHEMBL1148625, “3-(1,1-dioxo-2H-(1,2,4)-benzothiadiazin-3-yl)-4-hydroxy-2(1H)-quinolinones, potent inhibitors of hepatitis C virus RNA-dependent RNA polymerase” (J Med Chem, 2006)

What follows are compounds tested against RNA-directed RNA polymerase (Hepacivirus hominis, UniProt O39930) (assay: Inhibitory activity against HCV delta 21 NS5B RNA polymerase by SPA assay).
Set-up: species or system Hepatitis C virus subtype 1b

RNA-directed RNA polymerase, sequence (O39930 whole entry): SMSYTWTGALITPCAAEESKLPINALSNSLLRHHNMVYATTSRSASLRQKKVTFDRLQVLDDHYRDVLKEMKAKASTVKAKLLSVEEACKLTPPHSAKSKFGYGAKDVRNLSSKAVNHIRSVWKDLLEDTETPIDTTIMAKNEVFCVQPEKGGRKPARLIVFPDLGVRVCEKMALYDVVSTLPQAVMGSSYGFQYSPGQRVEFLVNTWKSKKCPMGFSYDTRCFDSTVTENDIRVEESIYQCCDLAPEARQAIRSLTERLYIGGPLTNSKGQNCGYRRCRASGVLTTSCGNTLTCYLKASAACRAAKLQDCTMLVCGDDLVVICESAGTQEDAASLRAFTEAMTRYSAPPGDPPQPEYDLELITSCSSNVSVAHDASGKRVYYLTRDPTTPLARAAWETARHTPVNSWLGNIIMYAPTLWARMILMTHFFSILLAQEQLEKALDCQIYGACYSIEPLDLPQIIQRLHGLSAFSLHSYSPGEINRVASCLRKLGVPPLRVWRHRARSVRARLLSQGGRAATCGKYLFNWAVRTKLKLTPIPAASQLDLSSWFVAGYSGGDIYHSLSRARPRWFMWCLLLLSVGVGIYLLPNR

Row | SMILES | IC50
1 | CC(C)CCn1c(=O)c(C2=NS(=O)(=O)c3ccccc3N2)c(O)c2cc(NC(=O)c3ccccc3)ccc21 | 4230 nM
2 | CC(C)CCn1c(=O)c(C2=Nc3ccccc3S(=O)(=O)N2)c(O)c2ccc(Cl)cc21 | > 10000 nM
3 | O=c1c(C2=NS(=O)(=O)c3ccccc3N2)c(O)c2ccccc2n1CCN1CCCC1 | > 10000 nM
4 | CC(C)CCn1c(=O)c(C2=Nc3ccccc3S(=O)(=O)N2)c(O)c2cccc([N+](=O)[O-])c21 | > 10000 nM
5 | O=c1c(C2=NS(=O)(=O)c3ccccc3N2)c(O)c2ccccc2n1CCCC(F)(F)F | 106 nM
6 | CC(=O)Nc1ccc2c(c1)c(O)c(C1=NS(=O)(=O)c3ccccc3N1)c(=O)n2CCC(C)C | > 10000 nM
7 | CC(C)CCn1c(=O)c(C2=NS(=O)(=O)c3ccccc3N2)c(O)c2cc(C(=O)O)ccc21 | 1040 nM
8 | Cn1c(=O)c(C2=NS(=O)(=O)c3ccccc3N2)c(O)c2ccccc21 | 5590 nM
9 | COC(C)CCn1c(=O)c(C2=NS(=O)(=O)c3ccccc3N2)c(O)c2ccccc21 (stereo not drawn) | 82 nM
10 | CC(C)CCn1c(=O)c(C2=Nc3ccccc3S(=O)(=O)N2)c(O)c2cc(NC(=O)CN(C)C)ccc21 | 5810 nM
11 | Cc1cccc2c1c(O)c(C1=Nc3ccccc3S(=O)(=O)N1)c(=O)n2CCC(C)C | 206 nM
12 | O=c1c(C2=Nc3ccccc3S(=O)(=O)N2)c(O)c2ccccc2n1CCc1cccs1 | > 10000 nM
13 | O=c1c(C2=Nc3ccccc3S(=O)(=O)N2)c(O)c2cccc(F)c2n1CCC1CC1 | 90 nM
14 | O=c1c(C2=Nc3ccccc3S(=O)(=O)N2)c(O)c2ccccc2n1Cc1ccccc1[N+](=O)[O-] | > 10000 nM
15 | CN(C)CCn1c(=O)c(C2=Nc3ccccc3S(=O)(=O)N2)c(O)c2ccccc21 | > 10000 nM
16 | COCCOc1ccc2c(c1)c(O)c(C1=NS(=O)(=O)c3ccccc3N1)c(=O)n2CCC(C)C | 1740 nM
17 | COc1ccc2c(c1)c(O)c(C1=NS(=O)(=O)c3ccccc3N1)c(=O)n2CCC(C)C | 23 nM
18 | CC(C)CCn1c(=O)c(C2=NS(=O)(=O)c3ccccc3N2)c(O)c2c(Cl)cccc21 | 33 nM
19 | CCOC(=O)CNc1ccc2c(c1)c(O)c(C1=Nc3ccccc3S(=O)(=O)N1)c(=O)n2CCC(C)C | 115 nM
20 | CC(C)CCn1c(=O)c(C2=Nc3ccccc3S(=O)(=O)N2)c(O)c2ccc(Br)cc21 | > 10000 nM
21 | O=c1c(C2=NS(=O)(=O)c3ccccc3N2)c(O)c2ccccc2n1CC1CCCC1 | 132 nM
22 | O=C(O)CCCn1c(=O)c(C2=Nc3ccccc3S(=O)(=O)N2)c(O)c2ccccc21 | > 10000 nM
23 | O=c1c(C2=Nc3ccccc3S(=O)(=O)N2)c(O)c2ccccc2n1Cc1ccc([N+](=O)[O-])cc1 | 2440 nM
24 | CCC(C)CCn1c(=O)c(C2=NS(=O)(=O)c3ccccc3N2)c(O)c2ccccc21 (stereo not drawn) | 65 nM

Row | SMILES | IC50
25 | CC(C)CCn1c(=O)c(C2=Nc3ccccc3S(=O)(=O)N2)c(O)c2cc([N+](=O)[O-])ccc21 | 455 nM
26 | O=c1[nH]c(-c2c(O)c3cc(F)ccc3n(CCC3CC3)c2=O)nc2ccccc12 | > 10000 nM
27 | CC(C)(C)c1ccc(Cn2c(=O)c(C3=NS(=O)(=O)c4ccccc4N3)c(O)c3ccccc32)cc1 | > 10000 nM
28 | NC(=O)CCCn1c(=O)c(C2=Nc3ccccc3S(=O)(=O)N2)c(O)c2ccccc21 | > 10000 nM
29 | CCn1c(=O)c(C2=Nc3ccccc3S(=O)(=O)N2)c(O)c2ccccc21 | 2220 nM
30 | C[S+]([O-])CCn1c(=O)c(C2=NS(=O)(=O)c3ccccc3N2)c(O)c2ccccc21 (stereo not drawn) | 2540 nM
31 | CC(C)CCn1c(=O)c(C2=NS(=O)(=O)c3ccccc3N2C)c(O)c2ccccc21 | > 2430 nM
32 | CC(C)CCn1c(=O)c(C2=NS(=O)(=O)c3ccccc3N2)c(O)c2cc(NC(=O)CC(C)C)ccc21 | 6500 nM
33 | CC(Br)CCn1c(=O)c(C2=Nc3ccccc3S(=O)(=O)N2)c(O)c2ccccc21 (stereo not drawn) | 290 nM
34 | CC(C)CCn1c(=O)c(C2=Nc3ccccc3S(=O)(=O)N2)c(O)c2cc(OCC(N)=O)ccc21 | 24 nM
35 | CC(CCn1c(=O)c(C2=NS(=O)(=O)c3ccccc3N2)c(O)c2ccccc21)C(F)(F)F (stereo not drawn) | 44 nM
36 | CC(C)CCn1c(=O)c(C2=Nc3ccccc3S(=O)(=O)N2)c(O)c2c(Br)cccc21 | 105 nM
37 | O=c1c(C2=NS(=O)(=O)c3ccccc3N2)c(O)c2ccccc2n1CCc1ccccc1 | > 10000 nM
38 | O=c1c(C2=Nc3ccccc3S(=O)(=O)N2)c(O)c2ccccc2n1Cc1ccccc1 | 82 nM
39 | N#Cc1ccccc1Cn1c(=O)c(C2=Nc3ccccc3S(=O)(=O)N2)c(O)c2ccccc21 | 780 nM
40 | CC(C)CCn1c(=O)c(C2=Nc3ccccc3S(=O)(=O)N2)c(O)c2cc(NCC(=O)O)ccc21 | 21 nM
41 | CC(C)CCn1c(=O)c(C2=Nc3ccccc3S(=O)(=O)N2)c(O)c2cc(N)ccc21 | 62 nM
42 | CC(C)CCn1c(=O)c(C2=Nc3ccccc3S(=O)(=O)N2)c(O)c2ccc(F)cc21 | 554 nM
43 | CC(C)CCn1c(=O)c(C2=Nc3ccccc3S(=O)(=O)N2)c(O)c2cc(Br)ccc21 | 205 nM
44 | CC(C)(C)C(=O)Cn1c(=O)c(C2=NS(=O)(=O)c3ccccc3N2)c(O)c2cc(F)ccc21 | 696 nM
45 | CC(C)CCn1c(=O)c(C2=NS(=O)(=O)c3ccccc3N2)c(O)c2cc(OCCCC#N)ccc21 | 4330 nM
46 | CCOC(=O)n1c(=O)c(C2=NS(=O)(=O)c3ccccc3N2)c(O)c2ccccc21 | 2040 nM
47 | CC(C)CCn1c(=O)c(C2=Nc3ccccc3S(=O)(=O)N2)c(O)c2cc(OCc3ccccc3)ccc21 | 3950 nM
48 | CC(C)CCn1c(=O)c(C2=NS(=O)(=O)c3ccccc3N2)c(O)c2c([N+](=O)[O-])cccc21 | 338 nM

Row | SMILES | IC50
49 | CC(C)CCn1c(=O)c(C2=Nc3ccccc3S(=O)(=O)N2)c(O)c2ccc(C(=O)O)cc21 | > 10000 nM
50 | CCOC(=O)c1ccc2c(O)c(C3=Nc4ccccc4S(=O)(=O)N3)c(=O)n(CCC(C)C)c2c1 | > 10000 nM
51 | O=c1c(C2=NS(=O)(=O)c3ccccc3N2)c(O)c2ccccc2n1Cc1cccnc1 | 316 nM
52 | CCCCn1c(=O)c(-c2nc3ccccc3[nH]2)c(O)c2ccccc21 | > 10000 nM
53 | C=CCn1c(=O)c(C2=Nc3ccccc3S(=O)(=O)N2)c(O)c2ccccc21 | > 10000 nM
54 | O=c1c(C2=Nc3ccccc3S(=O)(=O)N2)c(O)c2ccccc2n1Cc1cccc(Br)c1 | 36 nM
55 | O=c1c(C2=NS(=O)(=O)c3ccccc3N2)c(O)c2ccccc2n1CC1CCOC1 (stereo not drawn) | 484 nM
56 | O=c1c(C2=Nc3ccccc3S(=O)(=O)N2)c(O)c2ccccc2n1-c1ccccc1 | > 10000 nM
57 | CS(=O)(=O)CCn1c(=O)c(C2=Nc3ccccc3S(=O)(=O)N2)c(O)c2ccccc21 | 2320 nM
58 | CC(C)(C)CCn1c(=O)c(C2=NS(=O)(=O)c3ccccc3N2)c(O)c2ccccc21 | 21 nM
59 | CCCn1c(=O)c(C2=Nc3ccccc3S(=O)(=O)N2)c(O)c2ccccc21 | 1550 nM
60 | O=c1c(C2=NS(=O)(=O)c3ccccc3N2)c(O)c2ccccc2n1CCCO | 2810 nM
61 | CC(C)CCn1c(=O)c(C2=Nc3ccccc3S(=O)(=O)N2)c(O)c2c(-c3ccccc3)cccc21 | 144 nM
62 | O=c1c(C2=NS(=O)(=O)c3ccccc3N2)c(O)c2ccccc2n1Cc1ccc(Br)cc1 | 95 nM
63 | CC(C)CCn1c(=O)n(C2=Nc3ccccc3S(=O)(=O)N2)c(=O)c2ccccc21 | 9940 nM
64 | O=c1c(C2=NS(=O)(=O)c3ccccc3N2)c(O)c2ccccc2n1CCCc1ccccc1 | > 10000 nM
65 | N#CCCCCn1c(=O)c(C2=Nc3ccccc3S(=O)(=O)N2)c(O)c2ccccc21 | 750 nM
66 | CC(C)=CCn1c(=O)c(C2=Nc3ccccc3S(=O)(=O)N2)c(O)c2ccccc21 | 289 nM
67 | CC(C)CCn1c(=O)c(C2=Nc3ccccc3S(=O)(=O)N2)cc2ccccc21 | > 10000 nM
68 | C=CCCn1c(=O)c(C2=NS(=O)(=O)c3ccccc3N2)c(O)c2ccccc21 | 90 nM
69 | O=c1c(C2=NS(=O)(=O)c3ccccc3N2)c(O)c2ccccc2n1Cc1ccncc1 | 61 nM
70 | CCOC(=O)CCCn1c(=O)c(C2=NS(=O)(=O)c3ccccc3N2)c(O)c2ccccc21 | > 10000 nM
71 | C/C=C/Cn1c(=O)c(C2=Nc3ccccc3S(=O)(=O)N2)c(O)c2ccccc21 | 150 nM
72 | CC(C)CCn1c(=O)c(C2=Nc3ccccc3S(=O)(=O)N2)c(O)c2cc(NC(=O)C3CCCC3)ccc21 | 973 nM

Row | SMILES | IC50
73 | O=c1c(C2=Nc3ccccc3S(=O)(=O)N2)c(O)c2ccccc2n1Cc1cccc([N+](=O)[O-])c1 | 81 nM
74 | C#CCCCn1c(=O)c(C2=Nc3ccccc3S(=O)(=O)N2)c(O)c2ccccc21 | 179 nM
75 | CC(C)CCn1c(=O)c(C2=Nc3ccccc3S(=O)(=O)N2)c(O)c2ccc([N+](=O)[O-])cc21 | > 10000 nM
76 | O=c1c(C2=NS(=O)(=O)c3ccccc3N2)c(O)c2ccccc2n1Cc1ccccn1 | 2690 nM
77 | CC(C)CCn1c(=O)c(C2=NS(=O)(=O)c3ccccc3N2)c(O)c2ccc(/C=C/C(N)=O)cc21 | > 10000 nM
78 | N#CCCCn1c(=O)c(C2=NS(=O)(=O)c3ccccc3N2)c(O)c2ccccc21 | 172 nM
79 | CC(C)CCn1c(=O)c(C2=NS(=O)(=O)c3ccccc3N2)c(O)c2cc(I)ccc21 | > 10000 nM
80 | CCOC(=O)c1ccc2c(c1)c(O)c(C1=NS(=O)(=O)c3ccccc3N1)c(=O)n2CCC(C)C | > 10000 nM
81 | CSCCn1c(=O)c(C2=NS(=O)(=O)c3ccccc3N2)c(O)c2ccccc21 | 53 nM
82 | CC(C)CCn1c(=O)c(C2=NS(=O)(=O)c3ccccc3N2)c(N)c2ccccc21 | > 10000 nM
83 | O=c1c(C2=NS(=O)(=O)c3ccccc3N2)c(O)c2ccccc2n1CCO | > 10000 nM
84 | CC(C)CCn1c(=O)c(C2=Nc3ccccc3S(=O)(=O)N2)c(O)c2cc(OCC#N)ccc21 | 34 nM
85 | O=c1c(C2=Nc3ccccc3S(=O)(=O)N2)c(O)c2ccccc2n1CC1CC1 | 78 nM
86 | CC(C)CCn1cc(C2=NS(=O)(=O)c3ccccc3N2)c(=O)c2ccccc21 | > 10000 nM
87 | O=c1c(C2=Nc3ccccc3S(=O)(=O)N2)c(O)c2ccccc2n1CC1CCC1 | 49 nM
88 | CC(C)Cn1c(=O)c(C2=Nc3ccccc3S(=O)(=O)N2)c(O)c2ccccc21 | 108 nM
89 | C#CCCn1c(=O)c(C2=NS(=O)(=O)c3ccccc3N2)c(O)c2ccccc21 | 118 nM
90 | CC(C)CCn1c(=O)c(C2=Nc3ccccc3S(=O)(=O)N2)c(O)c2c(F)cccc21 | 340 nM
91 | O=c1c(C2=NS(=O)(=O)c3ccccc3N2)c(O)c2ccccc2n1CC1CCCO1 (stereo not drawn) | 528 nM
92 | CC(C)CCn1c(=O)c(C2=Nc3ccccc3S(=O)(=O)N2)c(O)c2cc(O)ccc21 | 198 nM
93 | O=S1(=O)N=C(c2c(O)nc3ccccc3c2O)Nc2ccccc21 | > 10000 nM
